Here are results for 32 compounds from patent US20090105278A1, “Selective inhibitors of human corticosteroid syntheses” (Universitat Des Saarlandes, priority 2004, published 2009).

Structures can show the parent of a compound that is named as a salt.

Test system in one data set: not given
Assay: not given
Settings: not given
As to `C(=C1/CCCc2ccccc21)/c1cccnc1.Cl` [Compound 3a, 3-[(E)-3,4-Dihydronaphthalene-1(2H)-ylidenemethyl]pyridine Hydrochloride], the melting point turned out to be 209 °C.
Same read-out and setting: the figure for `C(=C1\CCCc2ccccc21)/c1cccnc1.Cl` [Compound 3b, 3-[(Z)-3,4-Dihydronaphthalene-1(2H)-ylidenemethyl]pyridine Hydrochloride] is 206 °C; for `COc1ccc2c(c1)CCC/C2=C/c1cccnc1.Cl` [Compound 13b, 3-[(Z)-(6-Methoxy-3,4-dihydronaphthalene-1(2H)-ylidene)methyl]pyridine Hydrochloride] it is 151 °C.

In the next data set the target is T1, bovine adrenal CYP11B (Bos taurus, UniProt P15150).
T1 sequence (P15150 25-503): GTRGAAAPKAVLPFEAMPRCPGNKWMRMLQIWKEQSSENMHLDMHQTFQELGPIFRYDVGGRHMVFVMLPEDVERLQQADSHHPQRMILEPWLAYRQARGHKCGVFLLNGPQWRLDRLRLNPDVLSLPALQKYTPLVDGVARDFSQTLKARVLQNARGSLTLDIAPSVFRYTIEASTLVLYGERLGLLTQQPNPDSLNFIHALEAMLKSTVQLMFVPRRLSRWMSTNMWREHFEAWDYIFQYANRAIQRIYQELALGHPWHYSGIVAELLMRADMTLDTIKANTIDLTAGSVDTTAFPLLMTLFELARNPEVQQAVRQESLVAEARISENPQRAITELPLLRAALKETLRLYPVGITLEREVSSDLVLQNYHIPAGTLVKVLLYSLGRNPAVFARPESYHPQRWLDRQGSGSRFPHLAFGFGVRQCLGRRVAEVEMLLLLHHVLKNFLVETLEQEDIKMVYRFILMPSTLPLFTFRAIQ
Description: Percent inhibition of bovine CYP11B (adrenal mitochondria). The conditions noted are these: bovine adrenal mitochondria, 1 mg/ml protein; corticosterone substrate 200 μM; inhibitor 1 μM.
Description: Bovine adrenal glands obtained freshly after slaughtering were stored in ice cold Tris-sucrose buffer (0.25 M sucrose, 0.05 M Tris; pH 7.4) until processed. After removing the appending adipose tissue, the adrenal medulla was carefully separated from the adrenal cortex using scissors. The pieces of adrenal cortex were coarsely comminuted with scissors, washed with Tris-sucrose buffer, weighed and finely comminuted in the above buffer (2 ml per g of tissue) with a hand mixer. Thereafter, the tissue was homogenized with an Ultra-Turrax mixer. For separating coarse cell debris and the nuclei, the homogenizate was centrifuged twice for 15 min at 900 g and 4° C. The supernatant was subsequently centrifuged for 35 min at 11,000 g for recovering the mitochondrial fraction. For purifying the mitochondrial fraction, the precipitate was resuspended in Tri-sucrose buffer and again centrifuged at 11,000 g for 35 min. This washing step was performed two times in total. After the last centrifugation, the pellet was resuspended in Tris-sucrose buffer containing 0.001 M EDTA and frozen at −70° C.
The substrate corticosterone was dissolved in methanol and diluted with Tris buffer to a final concentration of 200 μM. The inhibitors were also dissolved in methanol and diluted with buffer to a final concentration of 1 μM. […] Corticosterone (200 μM) was incubated with inhibitor (1 μM) and mitochondrial enzyme (0.5 mg/0.5 ml) with the addition of a regenerating system consisting of NADP^+ (1 mM), glucose-6-phosphate (7 mM) and glucose-6-Phosphate dehydrogenase (1 IU/0.5 ml). Up to 5 inhibitors per test could be incubated in duplicate. […] After preincubation for 5 minutes (30° C.; water bath), the reaction was started by adding mitochondrial suspension. […] The blind values were admixed with 250 μl of HCl before the enzyme was pipetted in. The steroids were separated off by shaking with 1 ml of ethyl acetate (10 min). After centrifugation (15,000 g, 10 min), 900 μl of the organic phase was shaken with 250 μl 1 N NaOH (10 min), and 800 μl of supernatant was again washed with 250 μl of buffer. […] 18-OH-corticosterone (retention time: 10 min) and corticosterone (retention time: 21 min) were separated. The height of the 18-OH-corticosterone peak was used for evaluation. The percent inhibition of the 18-hydroxylation of corticosterone by the inhibitors was based on the mediums of the control incubation, taking the blind values into account.
Take “5-[(E)-(6-Chloro-3,4-dihydronaphth-1(2H)-ylidene)methyl]-1H-imidazolium chloride [Compound 46a]”: the “% Inhibition bovine bCYP11B” value was 66%.
Still for that read-out and setting: in the case of “5-[(Z)-3,4-Dihydronaphth-1(2H)-ylidenemethyl]-1H-imidazolium oxalate [Compound 41b]” it was 95%.
On the same count and under the same terms, in the case of “5-[(Z)-(5-Bromo-2,3-dihydro-1H-indene-1-ylidene)methyl]-1H-imidazolium oxalate [Compound 49b]” it was 88%.

The target in the next data set is T2, human CYP11B2 (Homo sapiens, UniProt P19099).
T2 sequence (P19099 25-503): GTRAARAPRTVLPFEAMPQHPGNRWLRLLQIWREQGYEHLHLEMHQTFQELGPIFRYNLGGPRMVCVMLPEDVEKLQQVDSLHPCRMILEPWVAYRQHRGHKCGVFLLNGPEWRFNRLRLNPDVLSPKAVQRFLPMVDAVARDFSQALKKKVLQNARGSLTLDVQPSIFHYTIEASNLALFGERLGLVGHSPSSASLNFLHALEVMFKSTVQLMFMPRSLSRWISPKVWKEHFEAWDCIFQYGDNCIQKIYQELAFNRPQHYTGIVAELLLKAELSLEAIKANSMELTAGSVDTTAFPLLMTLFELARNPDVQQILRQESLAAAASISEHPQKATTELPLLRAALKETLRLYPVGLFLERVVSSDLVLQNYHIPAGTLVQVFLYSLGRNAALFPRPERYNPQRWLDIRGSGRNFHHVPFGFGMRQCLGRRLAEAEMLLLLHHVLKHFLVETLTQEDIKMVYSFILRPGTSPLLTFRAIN
Description: V79 MZh 11B2 cells inhibition test. In kind it is cell-based. Set-up: expressed in transfected cells; host or cells: V79 MZh11B2 (Chinese hamster lung fibroblasts). The conditions noted are these: hamster fibroblasts which express human CYP11B2; deoxycorticosterone substrate 100 nM; read-out: IC50 V79 11B2 hCYP11B2. How it is done:
Both cell lines were cultured in DMEM^+ containing […] and the antibiotics penicillin and streptomycin (10%) for protection from bacterial contamination. The cells were passaged every 2-3 days after treatment with trypsin/EDTA because the doubling rate was 1-2 days depending on the number of cells. […] When there was further need, freshly thawed cells were employed.
Thereafter, the plate was stored at 37° C. and […] in a CO2 incubator. The V79 MZh 11B1 cells were incubated for 120 min, and the V79 MZh 11B2 cells were incubated for 40 min. Controls without inhibitor were treated in the same way. The enzyme reactions were quenched by extracting the supernatant with 500 μl of EtOAc. The samples were centrifuged (10,000 g, 2 min), the solvent was removed and evaporated.
For V79 MZh11B2, the conversion rate was obtained in accordance with equation 3: […]
It was calculated by determining the percent inhibition for at least 3 different inhibitor concentrations, which must all be in the linear range of the sigmoidal IC50 curve (log C/% inhibition).
The calculation was effected by linear regression. The values determined were used only if they formed a straight line with a reliability of […].
The plate was developed twice with the mobile solvent chloroform:methanol:water (300:20:1). Unlabeled 11-deoxycorticosterone and corticosterone were applied as a reference for the CYP11B1 reaction. For the CYP11B2 reaction, 11-deoxycorticosterone, corticosterone, 18-hydroxycorticosterone and aldosterone were used as references. The detection of the unlabeled references was effected at 260 nm. Subsequently, imaging plates (BAS MS2340, for ^14C samples, Raytest, Straubenhardt, Germany) were exposed to the HPTLC plates for 48 h. The imaging plates were scanned with the phosphoimager system Fuji FLA 3000 (Raytest, Straubenhardt, Germany), and the steroids were quantified.
As to “5-[(E)-(6-Chloro-3,4-dihydronaphth-1(2H)-ylidene)methyl]-1H-imidazolium chloride [Compound 46a]”, the concentration for half-maximal inhibition (IC50) was found to be 47.3 nM.
On the same count and under the same terms, in the case of “5-[(Z)-(5-Bromo-2,3-dihydro-1H-indene-1-ylidene)methyl]-1H-imidazolium oxalate [Compound 49b]” it was 10.3 nM.
Same read-out and setting: the figure for `C(=C1/CCc2ccccc21)/c1cccnc1` [Compound 1a, 3-[(E)-2,3-Dihydro-1H-indane-1-ylidenemethyl]pyridine Hydrochloride] is 10.6 nM; for `C(=C1\CCc2ccccc21)/c1cccnc1.Cl` [Compound 1b, 3-[(Z)-2,3-Dihydro-1H-indane-1-ylidenemethyl]pyridine Hydrochloride] it is 92 nM.
On the same count and under the same terms, in the case of `C(=C1\CCc2ccccc21)/c1ccncc1` [Compound 2b, 4-[(Z)-2,3-Dihydro-1H-indane-1-ylidenemethyl]pyridine oxalate] it was 931 nM.
Regarding `C(=C1/CCCc2ccccc21)/c1cccnc1.Cl` [Compound 3a, 3-[(E)-3,4-Dihydronaphthalene-1(2H)-ylidenemethyl]pyridine Hydrochloride], the concentration for half-maximal inhibition (IC50) is 21.6 nM.
On the same count and under the same terms, the figure for `C(=C1\CCCc2ccccc21)/c1cccnc1.Cl` [Compound 3b, 3-[(Z)-3,4-Dihydronaphthalene-1(2H)-ylidenemethyl]pyridine Hydrochloride] is 141 nM.
Same read-out and setting: the figure for `Fc1ccc2c(c1)CC/C2=C\c1cccnc1` [Compound 5a, 3-[(E)-(5-Fluoro-2,3-dihydro-1H-indane-1-ylidene)methyl]pyridine Hydrochloride] is 6.8 nM; for `Fc1ccc2c(c1)CC/C2=C/c1cccnc1` [Compound 5b, 3-[(Z)-(5-Fluoro-2,3-dihydro-1H-indane-1-ylidene)methyl]pyridine Hydrochloride] it is 10.8 nM; for `Fc1ccc2c(c1)CC/C2=C\c1ccncc1` [Compound 6a, 4-[(E)-(5-Fluoro-2,3-dihydro-1H-indane-1-ylidene)methyl]pyridine Hydrochloride] it is 1100 nM.
Still for that read-out and setting: the figure for `Fc1ccc2c(c1)CC/C2=C/c1ccncc1` [Compound 6b, 4-[(Z)-(5-Fluoro-2,3-dihydro-1H-indane-1-ylidene)methyl]pyridine Hydrochloride] is 34 nM; for `Clc1ccc2c(c1)CC/C2=C\c1cccnc1` [Compound 7a, 3-[(E)-(5-Chloro-2.3-dihydro-1H-indane-1-ylidene)methyl]pyridine Hydrochloride] it is 26.2 nM; for `Clc1ccc2c(c1)CC/C2=C/c1cccnc1` [Compound 7b, 3-[(Z)-(5-Chloro-2,3-dihydro-1H-indane-1-ylidene)methyl]pyridine Hydrochloride] it is 72.7 nM.
On to `Clc1ccc2c(c1)CC/C2=C\c1ccncc1` [Compound 8a, 4-[(E)-(5-Chloro-2,3-dihydro-1H-indane-1-ylidene)methyl]pyridine Hydrochloride], for which the IC50 came out at 1520 nM.
In the case of `Brc1ccc2c(c1)CC/C2=C\c1cccnc1` [Compound 9a, 3-[(E)-(5-Bromo-2,3-dihydro-1H-indane-1-ylidene)methyl]pyridine Hydrochloride], the IC50 amounted to 37.4 nM.
The same measure, in the same setting: in the case of `Brc1ccc2c(c1)CC/C2=C/c1cccnc1` [Compound 9b, 3-[(Z)-(5-Bromo-2,3-dihydro-1H-indane-1-ylidene)methyl]pyridine Hydrochloride] it was 171 nM; in that of `Brc1ccc2c(c1)CC/C2=C\c1ccncc1` [Compound 10a, 4-[(E)-(5-Bromo-2,3-dihydro-1H-indane-1-ylidene)methyl]pyridine Hydrochloride], 2640 nM; in that of `COc1ccc2c(c1)CC/C2=C\c1cccnc1` [Compound 11a, 3-[(E)-(5-Methoxy-2,3-dihydro-1H-indane-1-ylidene)methyl]pyridine Hydrochloride], 34.2 nM.
On the same count and under the same terms, the figure for `COc1ccc2c(c1)CC/C2=C/c1cccnc1` [Compound 11b, 3-[(Z)-(5-Methoxy-2,3-dihydro-1H-indane-1-ylidene)methyl]pyridine Hydrochloride] is 26.4 nM; for `COc1ccc2c(c1)CCC/C2=C\c1cccnc1` [Compound 13a, 3-[(E)-(6-Methoxy-3,4-dihydronaphthalene-1(2H)-ylidene)methyl]pyridine Hydrochloride] it is 56.6 nM.
Regarding `COc1ccc2c(c1)CCC/C2=C/c1cccnc1.Cl` [Compound 13b, 3-[(Z)-(6-Methoxy-3,4-dihydronaphthalene-1(2H)-ylidene)methyl]pyridine Hydrochloride], the IC50 was determined as 878 nM.
As to `CCOc1ccc2c(c1)CC/C2=C\c1cccnc1` [Compound 19a, 3-[(E)-(5-Ethoxy-2,3-dihydro-1H-indane-1-ylidene)methyl]pyridine Hydrochloride], the 50% inhibitory concentration (IC50) was 79.4 nM.
Same read-out and setting: in the case of `CCOc1ccc2c(c1)CC/C2=C/c1cccnc1` [Compound 19b, 3-[(Z)-(5-Ethoxy-2,3-dihydro-1H-indane-1-ylidene)methyl]pyridine Hydrochloride] it was 248 nM; in that of `Cc1cccc2c1CC/C2=C\c1cccnc1` [Compound 23a, 3-[(E)-(4-Methyl-2,3-dihydro-1H-indane-1-ylidene)methyl]pyridine Hydrochloride], 108 nM; in that of `Fc1cccc2c1CC/C2=C\c1cccnc1` [Compound 24a, 3-[(E)-(4-Fluoro-2,3-dihydro-1H-indane-1-ylidene)methyl]pyridine Hydrochloride], 20.9 nM.
Still for that read-out and setting: in the case of `Clc1cccc2c1CC/C2=C\c1cccnc1` [Compound 25a, 3-[(E)-(4-Chloro-2,3-dihydro-1H-indane-1-ylidene)methyl]pyridine Hydrochloride] it was 8.7 nM.
Still for that read-out and setting: the figure for `Clc1cccc2c1CC/C2=C/c1cccnc1` [Compound 25b, 3-[(Z)-(4-Chloro-2,3-dihydro-1H-indane-1-ylidene)methyl]pyridine Hydrochloride] is 30.6 nM; for `COc1cccc2c1/C(=C/c1cccnc1)CC2` [Compound 26a, 3-[(E)-(7-Methoxy-2,3-dihydro-1H-indane-1-ylidene)methyl]pyridine Hydrochloride] it is 26.7 nM; for `Fc1ccc2c(c1)CC/C2=C\c1cncnc1` [Compound 28a, 5-[(E)-(5-Fluoro-2,3-dihydro-1H-indane-1-ylidene)methyl]pyrimidine Hydrochloride] it is 27.4 nM.
Regarding `Fc1ccc2c(c1)CC/C2=C\c1cccc2cnccc12` [Compound 30a, 5-[(E)-(5-Fluoro-2,3-dihydro-1H-indane-1-ylidene)methyl]isoquinoline Hydrochloride], the half-inhibitory concentration (IC50) worked out at 58.1 nM.
On the same count and under the same terms, in the case of `Fc1ccc2c(c1)CC/C2=C/c1cccc2cnccc12` [Compound 30b, 5-[(Z)-(5-Fluoro-2,3-dihydro-1H-indane-1-ylidene)methyl]isoquinoline Hydrochloride] it was 26.1 nM.

By melting point is commonly meant the temperature of the solid-liquid transition. As usually defined, the IC50 is the point on the concentration scale where inhibition reaches its midpoint.
